Measured values reported in US11344625B2, “Compositions having antifungal activity” (WAKO FILTER TECHNOLOGY Co., LTD., priority 2015, dated 2022).
In brackets after ≈: the same amount, converted by molar mass. Like-named read-outs stand apart in the source and are kept apart here.

Tests used:
[1] = test system: Trichophyton mentagrophytes TIMM 2789; test: In vitro inhibition test for Trichophyton (pour-plate, agar); type: cell-based; conditions: cultured at 28° C.
Experimental: A clinical isolate, Trichophyton mentagrophytes TIMM 2789, held by the Teikyo University Medical Mycology Research Center was used as the Trichophyton. For the preculture process, this Trichophyton was extracted from low-temperature silica stock one week prior to the day of the test, and was cultured on a Sabouraud Dextrose Agar culture plate containing 50 μg/ml of chloramphenicol and 500 μg/ml of cycloheximide (such that these components were diluted to 1/10). This culturing was performed for one week at 28° C., and the bacteria were collected and used on the day of the test. The setting of the Trichophyton bacterial count was achieved by transferring the collected bacteria using a pour-plate method to a culture medium such that the final concentration was 10^3 cells/ml. In addition, the respective test samples were also transferred to a culture medium using a pour-plate method such that the final concentrations thereof were set to those shown in the table below. […] In the preparation, 1 ml of each test sample solution and 24 ml of RPMI-1640 culture medium were blended together, and prepared in a sterilized plastic Petri dish. The Trichophyton inoculation culture medium that was prepared in this manner was then cultured at 28° C. for four days, and the growth inhibitory effect of the mycelia after this culturing was observed and the properties thereof determined. The determinations were made both visually, and in the case of turbidity being present, by comparing the growth condition of the mycelia with a control (containing no test sample additives) via photomicrograph (at magnification ×40).
Results for the negativity and positivity of the bacteria obtained from each test sample are shown below in Table 6. Note that if the mycelial growth rate of the control is taken as 100%, then when the mycelial growth rate in the test sample is 0%, this is determined to be [−], while if the mycelial growth rate in the test sample is 1 to 20%, this is determined to be [+], and if the mycelial growth rate in the test sample is 21 to 90%, this is determined to be […]. Note that FIG. 15 and FIG. 16 are photographs showing states 7 days after colony formation of the Trichophyton in each test sample.

[2] = test system: Candida albicans TIMM 1768; test: Inhibition test for Candida mycelial growth (crystal violet, checkerboard for combinations); type: cell-based; conditions: for IC (at a 70% growth inhibitory concentration): checkerboard; for IC 70 (70% growth inhibitory concentration): alone, Candida mycelial growth; for improvement effect in the anticandidal activity against Candida mycelial growth: test reagent alone, concentration series
Experimental: A clinical isolate, Candida albicans TIMM 1768, held by the Teikyo University Medical Mycology Research Center was used as the Candida. This Candida was cultured for 20 hours at 37° C. on a Sabouraud Dextrose Agar culture plate. The multiplied bacterial cells were recovered, and then suspended in sterilized water so as to form Candida solutions whose bacterial count was adjusted to 5×10^3 cells/ml. Each sample was dissolved in advance in DMSO (dimethyl sulfoxide) so as to match the final concentration, and was then added to a 1/3 RPMI-1640 culture medium containing 2% calf serum so as to form sample solutions. 100 μL of both the sample solution (having a DSMO concentration in the culture medium of 0.5%) and the Candida bacterial solution were then placed respectively in each well of a 96-hole microplate (manufactured by Sumitomo Bakelite, Tokyo), and these were then cultured for three hours at 37° C. in a 5% carbon dioxide gas atmosphere. After three hours, the solutions in each well were discarded and the wells were cleaned. Subsequently, 200 μL of 1/3 RPMI-1640 was newly added to each well, and culturing was performed for 16 hours at 37° C. in a presence of 5% carbon dioxide gas. Once this culturing had ended, the solutions in each well were removed by suction, and the wells were washed using physiological saline. 200 μL of 70% ethanol was then injected so as to sterilize the Candida. After the ethanol had been removed, and the wells washed with tap water, 100 μL of a dye solution (i.e., a 0.1 M phosphate buffer containing 0.01% of dissolved crystal violet solution) was injected and left standing for 15 minutes. As a result, the Candida mycelia adhering to the surface of the wells were dyed.
After the wells were then washed with tap water so as to remove excess dye solution, 150 μL of […] containing 0.04 NHCL, and 50 μL of a 0.25% sodium dodecyl sulfate solution were then injected so as to free the coloring adhering to the bacterial cells. After the coloring had been freed, the plate was set in a multiscan photometer (i.e., a Multiskan FC, manufactured by Thermo Fisher Scientific Inc.), and the OD at 620 nm was measured in each well. The growth inhibition rate was then determined using the following formula. Growth inhibition rate (%)=(1−sample OD/subject OD)×100
The anticandidal activity synergistic effect provided by the combined use was evaluated using a checkerboard method. […] The experiment conditions and the measurement method and the like were the same as those employed for the mycelial growth test (i.e., Example 1).
The anticandidal activity synergistic effect obtained from a combined use was evaluated using a checkerboard method in the same way as in Example 2. […] The experiment conditions and the measurement method and the like were the same as those employed for the mycelial growth test (i.e., Example 1).
The anticandidal activity effect obtained from each test reagent was evaluated using a checkerboard method in the same way as in Example 2. […] The experiment conditions and the measurement method and the like were the same as those employed for the mycelial growth test (i.e., Example 1).

[3] = test system: Trichophyton mentagrophytes TIMM 2789; test: In vitro inhibition test for Trichophyton (pour-plate, agar); type: cell-based; conditions: for MIC: Trichophyton mentagrophytes, read-out: MIC (minimum inhibitory concentration)
[4] = test system: Candida albicans TIMM 1768; test: Oral candidiasis model in mice; type: in vivo, ICR strain mice; conditions: day 2
Experimental: Using ICR strain mice (males, 6 weeks old, Charles River Laboratories, Japan) as the experimental animals, these mice were subcutaneously injected with 100 mg/kg of prednisolone as an immunosuppressant on the day prior to the candidiasis inoculation. Additionally, tap water containing 15 mg/ml of chlortetracycline hydrochloride was made freely available starting from that same day. On the day of the innoculation, in order to keep the mice in a resting state, 14.4 mg/kg of chlorpromazine hydrochloride (manufactured by Wako Pure Chemical Industries, Ltd.) was intramuscularly administered in advance. The bacterial strain and culturing method that were used were the same as in the Examples as far as the previous paragraph, and the multiplied bacterial cells were suspended in an RPMI-1640 culture medium containing 2% calf serum so as to form a bacterial solution whose bacterial count was adjusted to 2×10^8 cells/ml. […] Two days after the inoculation the mouse was euthanized, and the tongue symptom score was evaluated in accordance with a reference. […] A fixed quantity of this was then coated onto a Candida GS agar plate, and was cultured at 37° C. for 20 hours. The number of colonies appearing after this time was then measured. The number of viable Candida bacteria CFU (colony forming units) recovered from the relevant individuals was then calculated from the number of colonies.

[5] = test system: Malassezia pachydermatis; test: Anti-Malassezia fungal activity, agar dilution method; type: cell-based; conditions: for Determination (mycelial growth rate taking control as 100): 7 days at 32° C.
Experimental: 100 μL lots of the test bacterial solution adjusted to McFarland 1.0 were coated over this Agar plate and were cultured for seven days at 32° C. Thereafter, the growth rate of the bacteria thereon were compared with a control (i.e., an MLNA culture medium containing no test additives) and their properties were determined. […] Note that if the mycelial growth rate of the control is taken as 100%, then when the mycelial growth rate in the test sample is 0%, this is determined to be [−], while if the mycelial growth rate in the test sample is 1 to 20%, this is determined to be [+], and if the mycelial growth rate in the test sample is 21 to 90%, this is determined to be […].

[6] = LYZOX used in combination with terpinen-4-ol
[7] = used in combination with decanoic acid
[8] = used in combination with terpinen-4-ol

Compound | Determination (mycelial growth rate taking control as 100) ([1]; 1 mg/ml) | Determination (mycelial growth rate taking control as 100) ([1]; 2.5 mg/ml) | Determination (mycelial growth rate taking control as 100) ([1]; 5 mg/ml) | IC (at a 70% growth inhibitory concentration) [2, 6] [µg/mL] | IC 70 (70% growth inhibitory concentration) [2] [mg/L] | improvement effect in the anticandidal activity against Candida mycelial growth [2] | improvement effect in the anticandidal activity from combined usage against Candida mycelial growth [2, 7] | improvement effect in the anticandidal activity from combined usage against Candida mycelial growth [2, 8] | Determination (mycelial growth rate taking control as 100) ([5]; 0.05 mg/ml) | Determination (mycelial growth rate taking control as 100) ([5]; 0.1 mg/ml) | Determination (mycelial growth rate taking control as 100) ([5]; 0.5 mg/ml) | Determination (mycelial growth rate taking control as 100) ([5]; 1 mg/ml) | further results
LYZOX: complex formed by bonding lysozyme to chitosan (14000 Da) via a Maillard reaction; LYZOX is a registered trademark | +++ (91 to 100%) | ++ (21 to 90%) | ++ (21 to 90%) | 60 | 193 | improvement effect in the anticandidal activity against Candida mycelial growth was visible | remarkable improvement effect | remarkable improvement effect | +++ (91 to 100%) | ++ (21 to 90%) | − (0%) | − (0%) | Determination (mycelial growth rate taking control as 100) ([1]; 10 mg/ml): − (0%); Candida growth rate ([2]; 250 μg/ml): 0.9%; MIC (minimum inhibitory concentration) ([3]; LYZOX and decanoic acid used in combination): 100 mg/L; MIC (minimum inhibitory concentration) ([3]; used alone): 10000 mg/L; tongue symptom score ([4]; L 20 mg/ml on tongue dorsum 3, 24, 27 h after inoculation): remarkable improvement effect; anti-Malassezia fungal activity against Malassezia fungi ([5]; summary of agar dilution and disk experiments): exhibited anti-Malassezia fungal activity
CC1=CCC(O)(C(C)C)CC1 (stereo not shown) [Terpinen-4-ol, terpinen-4-ol] | – | – | – | 280 | 1900 | – | – | – | – | – | – | – | viable bacteria count recovered from the oral cavity ([4]; T 10 mg/ml on tongue dorsum 3, 24, 27 h after inoculation): reduction in the viable bacterial count
Lysozyme: simple lysozyme, unbonded component of the complex | – | +++ (91 to 100%) | ++ (21 to 90%) | – | – | no improvement effect | no improvement effect | no improvement effect | +++ (91 to 100%) | – | +++ (91 to 100%) | – | –
CCCCCCCCCC(=O)O [Decanoic acid, decanoic acid] | ++ (21 to 90%) | – | – | – | 480 | – | – | – | – | +++ (91 to 100%) | – | +++ (91 to 100%) | Determination (mycelial growth rate taking control as 100) ([1]; 0.8 mg/ml): +++ (91 to 100%); Determination (mycelial growth rate taking control as 100) ([1]; 0.9 mg/ml): +++ (91 to 100%); Determination (mycelial growth rate taking control as 100) ([1]; 1.5 mg/ml): − (0%); IC (at a 70% growth inhibitory concentration) ([2]; LYZOX used in combination with capric acid (decanoic acid)): 25 µg/mL; MIC ([3]; TIMM2789, LYZOX and decanoic acid used in combination): 200 mg/L; MIC ([3]; TIMM2789, used alone): 1500 mg/L (≈ 8.71 mM); Determination (mycelial growth rate taking control as 100) ([5]; 0.2 mg/ml): +++ (91 to 100%); Determination (mycelial growth rate taking control as 100) ([5]; 2 mg/ml): + (1 to 20%)
